Values of other authors as cited in patent publication US20230364078A1, “METHOD OF PREPARING NANOPARTICLES COMPRISING POORLY WATER SOLUBLE DRUGS FOR TREATING HEPATITIS” (priority 2022, published 2023).

Tests used:
[1] = parameters: key: Class 1 has high solubility and permeability; Class 2 has low solubility but good permeability; Class 3 has high solubility but low permeability; Class 4 has low solubility and permeability; settings: water solubility and intestinal permeability
[2] = non-nanosized drug
[3] = solvent ethanol

COC(=O)N[C@H](C(=O)N1CCC[C@H]1c1ncc(-c2ccc(-c3ccc(-c4cnc([C@@H]5CCCN5C(=O)[C@@H](NC(=O)OC)C(C)C)[nH]4)cc3)cc2)[nH]1)C(C)C [Formula 1, Daclatasvir]
BCS class [1]: 2 | solubility in water [2]: insoluble in water | solubility to ethanol [3]: 148 mg/mL

C=C[C@@H]1C[C@]1(NC(=O)[C@@H]1C[C@@H]2CN1C(=O)[C@H](C(C)(C)C)NC(=O)O[C@@H]1C[C@H]1CCCCCc1nc3ccc(OC)cc3nc1O2)C(=O)NS(=O)(=O)C1CC1 [Formula 2, Grazoprevir]
BCS class [1]: 2 | solubility in water [2]: very little soluble in water | solubility to ethanol [3]: 15 mg/mL

C=C[C@@H]1C[C@]1(NC(=O)[C@@H]1C[C@@H](Oc2ncc(OC)c3ccc(Cl)cc23)CN1C(=O)[C@@H](NC(=O)OC(C)(C)C)C(C)(C)C)C(=O)NS(=O)(=O)C1CC1 [Formula 3, Asunaprevir]
BCS class [1]: 2 | solubility in water [2]: very little soluble in water | solubility to ethanol [3]: 100 mg/mL

COC[C@H]1C[C@@H](c2nc(-c3ccc4c(c3)COc3cc5c(ccc6nc([C@@H]7CC[C@H](C)N7C(=O)[C@@H](NC(=O)OC)C(C)C)[nH]c65)cc3-4)c[nH]2)N(C(=O)[C@H](NC(=O)OC)c2ccccc2)C1 [Formula 4, Velpatasvir]
BCS class [1]: 4 | solubility to ethanol [3]: 30 mg/mL
